≈ marks a conversion by molar mass, not a printed value. Where a name gives a salt, the structure may show the parent alone.
Legend:
[1] = tested on: CD-1 mice; assay: HIV peripheral neuropathy (gp120), mechanical threshold, morphine anti-nociception; assay type: in vivo; details: for A50 (morphine anti-nociceptive potency), HIV neuropathy: %MPE, 95% CI in parentheses
Procedure: Mechanical threshold baselines were measured prior to any treatment on the left hind paw using von Frey filaments. HIV peripheral neuropathy was induced by intrathecal injection of gp120 IIIb protein (SPEED BioSystems, Gaithersburg, MD, Cat# YCP1549, 15 ng/μl in 0.1 M PBS and 0.1% BSA, 7-μl volume) using our previously established protocol[13] on days 1, 3, and 5. On day 20 a second mechanical threshold baseline was measured on the left hind paw using von Frey filaments and then KU-32 or Vehicle was injected i.t with a 24-h treatment time. […] . No animals were excluded from these studies.

[2] = tested on: CD-1 mice; assay: 52 °C tail-flick assay, morphine anti-nociception after Hsp90 inhibitor treatment; assay type: in vivo; details: for naloxone reversibility of inhibitor-enhanced morphine pain relief: 2 mg/kg naloxone i.p. 10 min; for A50 (morphine anti-nociceptive potency), tail flick, systemic inhibitor: 1 mg/kg inhibitor i.v., peak %MPE; for effect of higher 10 mg/kg dose on morphine pain relief (tail flick): 10 mg/kg i.v. vs 1 mg/kg i.v.
Procedure: (§1) Pre-injection tail-flick baselines were determined in a 52 °C tail-flick assay with a 10-s cutoff time (method also reported in Ref.[13]). […] No animals were excluded from these studies.

[3] = tested on: CD-1 mice; assay: Morphine anti-nociceptive tolerance and tolerance rescue (tail flick); assay type: in vivo; details: for A50 of morphine, Day 1 of tolerance regimen / A50 of morphine, Day 4 of tolerance regimen: twice daily 1–10 mg/kg morphine s.c., 95% CI in parentheses; for A50 of morphine, Day 1 of tolerance regimen / A50 of morphine, Day 4 of tolerance regimen / rescue of established morphine tolerance, systemic inhibitor: tail flick; for rescue of established morphine tolerance, systemic inhibitor: 1 mg/kg i.v. on day 3, 24 h, 10 mg/kg morphine s.c.
Procedure: as §1

[4] = tested on: CD-1 mice; assay: Post-surgical paw incision, mechanical allodynia (von Frey), morphine anti-nociception; assay type: in vivo
Procedure: Mechanical thresholds were determined prior to surgery using calibrated von Frey filaments (Ugo Basile, Varese, Italy) with the up-down method and four measurements after the first response per mouse as in Ref.[27] and our previously published work (e.g. Ref.[28]). The mice were housed in a homemade apparatus with Plexiglas walls and ceiling and a wire mesh floor (3-inch wide 4-inch long 3-inch high with 0.25-inch wire mesh). The surgery was then performed by anesthesia with ~ 2% isoflurane in standard air, preparation of the left plantar hind paw with iodine and 70% ethanol, and a 5-mm incision made through the skin and fascia with a no. 11 scalpel. The muscle was elevated with curved forceps leaving the origin and insertion intact, and the muscle was split lengthwise using the scalpel. The wound was then closed with 5–0 polyglycolic acid sutures. Mice were then injected with inhibitor or Vehicle control and left to recover for 24 h. Our intrathecal (i.t.) injection protocol is reported in Refs.[13],[29]; briefly, the injection was made in awake and restrained animals with a 10 μL Hamilton syringe and 30 g needle (5–7 μL volume) between the L5-L6 vertebrae at a 45° angle, with placement validated by tail twitch. Since the injection was made through skin with no incision or other surgical intervention, repeated injection protocols were performed the same way. The next day, the mechanical threshold was again determined as described above. […] . No animals were excluded from these studies.

[5] = biological target: T1, human mu opioid receptor (Homo sapiens, UniProt P35372); assay type: binding; details: up to a 10 μM concentration
T1 construct: membrane protein

[6] = in vitro; assay type: in vitro ADME; details: male, human, microsomes
Procedure: (§2) Metabolic stability of lead compounds was assessed in vitro by the method of Di et al.[32]. Briefly, mouse liver microsomes (Corning Life Sciences, Woburn, MA) were isolated from CD-1 mice (male mice, 8 − 10 weeks of age). Assays were conducted using 0.123 mg/mL protein concentration (total protein concentration in the microsomal solution) and 1.0 μM drug concentration under incubation conditions of 37 °C. Metabolic stability was determined following 0, 5, 15, 30, and 60 min of incubation time. The samples were analyzed by reversed phase LC using a triple quadrupole mass spectrometer. Compound specific transitions of parent ion to product ion were monitored and percent remaining calculated based on peak area of 5 − 60 min time points (relative to time zero). Half-life calculations were determined using the formula t½ = − ln(2)/k, where k (min^−1) is the turnover rate constant (the slope) estimated from a log − linear regression of the percentage compound remaining versus time.
Metabolic stability of the compounds in human liver microsomes was determined by the method described above using pooled human liver microsome preparations from 20 male donors (Corning Life Sciences, Woburn, MA). Assays were conducted as described above and the in vitro half-life of the compounds was calculated. […]

[7] = physchem; assay type: physicochemical
Procedure: Distribution coefficient (LogD) was determined by the method of Wilson et al.[30]. Briefly, 5 µL volumes of test compounds diluted in DMSO were added to a mixture of equal volumes of 50 mM phosphate buffer and 1-octanol. The compounds were assayed using a 50 nM concentration in order to limit compound precipitation and to ensure that the assay values were maintained within the dynamic range of the LC–MS/MS instrumentation. Samples were vortex mixed at 800 rpm for 24 h. Subsequent to centrifugation at 14,000 rpm for 30 min, 1 µL of each layer was analyzed by LC–MS/MS. LogD was calculated using the peak areas obtained from each layer.
LC − MS/MS analysis was conducted using an Agilent (Santa Clara, CA) 6460 triple quadrupole mass spectrometer coupled with an Agilent liquid chromatography (LC) system. The LC system consists of a binary pump, degasser, column heater, and autosampler. Chromatographic separation was performed on a Waters Atlantis T3 3 µm 3.0 × 50 mm analytical column using a ballistic gradient of mobile phase consisting of 0.1% formic acid in water (A) and 0.1% formic acid in acetonitrile (B) at a flow rate of 0.75 mL/min. The mobile phase was heated to a temperature of 45 °C.

[8] = biological target: T2, human kappa opioid receptor (Homo sapiens, UniProt P41145); assay: Competition radioligand binding vs 3H-diprenorphine, kappa opioid receptor; details: up to a 10 μM concentration
T2 construct: membrane protein

[9] = in vitro; assay type: in vitro ADME, CD-1 mice; details: male, CD-1, mouse, microsomes
Procedure: as §2
LC − MS/MS analysis was conducted using an Agilent (Santa Clara, CA) 6460 triple quadrupole mass spectrometer coupled with an Agilent liquid chromatography (LC) system. The LC system consists of a binary pump, degasser, column heater, and autosampler. […]

[10] = tested on: CD-1 mice; details: mouse, in vivo
[11] = biological target: T3, human delta opioid receptor (Homo sapiens, UniProt P41143); assay: Competition radioligand binding vs 3H-diprenorphine, delta opioid receptor; details: up to a 10 μM concentration
T3 construct: membrane protein

[12] = in vivo; details: CD-1, mouse, iv
[13] = physchem; details: pH 6.8, aqueous buffer, thermodynamic from solid
[14] = 1 and 10 mg/kg i.v.
[15] = tested on: CD-1 mice; assay: Opioid induced constipation (fecal production over 6 h)
[16] = tested on: CD-1 mice; assay: Conditioned place preference (morphine reward); details: Vehicle i.t. over 4 days with 3.2–10 mg/kg morphine s.c.; 95% CI in parentheses
[17] = 0.01 nmol KU-32 i.t. vs Vehicle
[18] = 1 mg/kg i.v., 24 h, 3.2 mg/kg morphine s.c., tail flick
[19] = 24 h, then 1–5.6 mg/kg morphine s.c., 95% CI in parentheses
[20] = 24 h, then 3.2 mg/kg morphine s.c.
[21] = 3 days twice daily 10 mg/kg morphine s.c.

## CO[C@@H]1[C@@H](O)[C@@H](O)[C@H](Oc2ccc3cc(NC(C)=O)c(=O)oc3c2C)OC1(C)C [KU-32]
[1]; 0.01 nmol KU-32 i.t. on day 20, 24 h, then 0.32–10 mg/kg morphine s.c.
  A50 (morphine anti-nociceptive potency), HIV neuropathy: 1.2 (0.87–1.5) mg/kg
[1]; [17]
  fold increase in morphine potency, HIV neuropathy: 3.5 fold
[2]; [17]
  fold increase in morphine potency, tail flick: 1.9 fold
[2]; 0.01 nmol KU-32 i.t., 24 h, then 1–10 mg/kg morphine s.c., %MPE, 95% CI in parentheses
  A50 (morphine anti-nociceptive potency), tail flick: 1.6 (1.3–2.0) mg/kg
[3]; 0.01 nmol i.t. daily, 7-day regimen
  baseline nociception (tail flick baseline responses): not altering baseline nociception
[3]; 3 days twice daily 10 mg/kg morphine s.c., 0.01 nmol i.t. on day 3, 24 h, 10 mg/kg morphine on day 4
  rescue of established morphine tolerance: full anti-nociceptive response to morphine, comparable to their day 1 response
[3]; daily 0.01 nmol KU-32 i.t.
  A50 of morphine, Day 1 of tolerance regimen: 1.9 (1.3–2.5) mg/kg
  A50 of morphine, Day 4 of tolerance regimen: 5.5 (3.5–12) mg/kg
[4]; [17]
  fold increase in morphine potency, paw incision: 2.8 fold
[4]; 0.01 nmol KU-32 i.t., 24 h, then 0.32–5.6 mg/kg morphine s.c., %MPE, 95% CI in parentheses
  A50 (morphine anti-nociceptive potency), paw incision: 0.85 (0.64–1.1) mg/kg

## Cc1ccc(Sc2cc(C(=O)N3Cc4ccccc4C3)ccc2O)cc1C [KUNA115]
[2]; 0.01 nmol i.t., 24 h, then 3.2 mg/kg morphine s.c.
  effect on morphine tail flick anti-nociception, isoform-selective inhibitor i.t.: significant anti-nociceptive elevation
[4]; 1 mg/kg i.v., 24 h, then 3.2 mg/kg morphine s.c.
  effect of systemic Hsp90α inhibitor on morphine anti-nociception, paw incision: completely blocked anti-nociception

## CCCc1cc2cc(-n3nc(C)c4c3CC(C)(C)CC4=O)cc(N3CCC(O)CC3)c2c(=O)[nH]1 [KUNB106]
[5]
  binding to mu opioid receptor (competition vs 3H-diprenorphine): did not find any binding
[6]
  half-life at 1 µM: 156 min
[7]
  logD at 24 h: 2.26
[8]
  binding to kappa opioid receptor (competition vs 3H-diprenorphine): did not find any binding
[9]
  half-life at 1 µM: 63 min
[10]
  effect on respiratory activity before and after morphine: no impact on respiratory activity before or after morphine
[2]; [18]
  naloxone reversibility of inhibitor-enhanced morphine pain relief: fully naloxone-reversible
[2]; [19]
  A50 (morphine anti-nociceptive potency), tail flick, systemic inhibitor: 1.7 (1.1–2.3) mg/kg
[2]; [20]
  effect of higher 10 mg/kg dose on morphine pain relief (tail flick): less benefit than 1 mg/kg
[11]
  binding to delta opioid receptor (competition vs 3H-diprenorphine): did not find any binding
[3]; [21]
  rescue of established morphine tolerance, systemic inhibitor: rescued established tolerance

## COC(=O)c1c(O)cc(O)c(Cl)c1CCc1ccccc1Cc1ccc(F)cc1 [KUNG65]
[12]; 1 mg/kg
  AUC(0-inf): 0.245 µM·h
  Cmax: 418 nM
  Tmax: 4.98 min
  half-life: 36 min
[12]; 10 mg/kg
  AUC(0-inf): 0.46 µM·h
  Cmax: 1070 nM
  Tmax: 4.98 min
  half-life: 38.4 min
[5]
  binding to mu opioid receptor (competition vs 3H-diprenorphine): no binding
[6]
  half-life at 1 µM: 144 min
[7]
  logD at 24 h: 3.3
[13]
  solubility at 24 h: 0.074 µM (≈ 0.0307 µg/mL)
[14]
  exposure in the spinal cord: very low exposure
[8]
  binding to kappa opioid receptor (competition vs 3H-diprenorphine): no binding
[9]
  half-life at 1 µM: 32 min
[10]
  effect on respiratory activity before and after morphine: no effect on respiration before or after morphine injection
[2]; [18]
  naloxone reversibility of inhibitor-enhanced morphine pain relief: fully naloxone-reversible
[2]; 1 mg/kg i.v., 48 h, then 3.2 mg/kg morphine s.c.
  effect on morphine tail flick anti-nociception 48 h after treatment: no effect
[2]; [19]
  A50 (morphine anti-nociceptive potency), tail flick, systemic inhibitor: 1.9 (1.4–2.3) mg/kg
[2]; [20]
  effect of higher 10 mg/kg dose on morphine pain relief (tail flick): elevated morphine pain relief, it did so less than a 1 mg/kg dose
[2]; Grp94 CRISPR i.t., 1 mg/kg i.v. on day 9, 24 h, 3.2 mg/kg morphine s.c., tail flick
  effect of spinal cord Grp94 CRISPR knockdown on benefit of systemic inhibitor: abolished the benefit
[11]
  binding to delta opioid receptor (competition vs 3H-diprenorphine): no binding
[3]; [21]
  rescue of established morphine tolerance, systemic inhibitor: rescued established tolerance
[4]; 1 mg/kg inhibitor i.v., 24 h, then 1–3.2 mg/kg morphine s.c., peak %MPE, 95% CI in parentheses
  A50 (morphine anti-nociceptive potency), paw incision, systemic inhibitor: 0.9 (0.5–1.2) mg/kg

## CN1CC[C@]23c4c5ccc(O)c4O[C@H]2[C@@H](O)C=C[C@H]3[C@H]1C5 [morphine, Morphine sulfate pentahydrate, reference compound]
[15]; 1 mg/kg morphine s.c.
  constipation compared to saline-injected controls: ~ 40%
[15]; 3.2–10 mg/kg morphine s.c.
  constipation compared to saline-injected controls (plateau): ~ 70%
[15]; Vehicle i.t., 24 h, then morphine s.c., 6-h AUC, %MPE, 95% CI in parentheses
  A50 (morphine constipation potency): 0.67 (0.32–0.94) mg/kg
[1]; Vehicle i.t. on day 20, 24 h, then morphine s.c.
  A50 (morphine anti-nociceptive potency), HIV neuropathy: 4.2 (3.7–4.8) mg/kg
[2]; Vehicle i.t., 24 h, then 1–10 mg/kg morphine s.c., %MPE, 95% CI in parentheses
  A50 (morphine anti-nociceptive potency), tail flick: 3.0 (2.5–3.7) mg/kg
[2]; Vehicle i.v. (control of KUNB106 experiment, Fig. 9E), 24 h, then 1–5.6 mg/kg morphine s.c.
  A50 (morphine anti-nociceptive potency), tail flick: 5.6 (4.4–∞) mg/kg
[2]; Vehicle i.v. (control of KUNG65 experiment, Fig. 8F), 24 h, then 1–5.6 mg/kg morphine s.c.
  A50 (morphine anti-nociceptive potency), tail flick: 3.6 (2.9–4.6) mg/kg
[3]; daily Vehicle i.t.
  A50 of morphine, Day 1 of tolerance regimen: 5.2 (3.9–7.5) mg/kg
  A50 of morphine, Day 4 of tolerance regimen: 110 (30–6300) mg/kg
[4]; Vehicle i.t., 24 h, then morphine s.c., %MPE, 95% CI in parentheses
  A50 (morphine anti-nociceptive potency), paw incision: 2.4 (2.0–2.8) mg/kg
[4]; Vehicle i.v. (control of KUNB106 experiment, Fig. S7B), then 1–3.2 mg/kg morphine s.c.
  A50 (morphine anti-nociceptive potency), paw incision: 2.5 (2.0–∞) mg/kg
[4]; Vehicle i.v. (control of KUNG65 experiment, Fig. S6B), then 1–3.2 mg/kg morphine s.c.
  A50 (morphine anti-nociceptive potency), paw incision: 2.0 (1.4–3.0) mg/kg
[16]
  A50 (morphine reward potency, CPP % Difference Score): 5.1 (2.7–7.7) mg/kg
